The supplement of paper PMC10307832

What was measured:
Experiment in all cases: relative viability (nuclei count vs DMSO), 5 days (fraction); higher = more cells survive
Seliciclib + Lapatinib = compound: CC[C@H](CO)Nc1nc(NCc2ccccc2)c2ncn(C(C)C)c2n1 [Seliciclib] + CS(=O)(=O)CCNCc1ccc(-c2ccc3ncnc(Nc4ccc(OCc5cccc(F)c5)c(Cl)c4)c3c2)o1 [Lapatinib] (partner 2 µM)
Summary of the method: (§1)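 After 5 days of treatment, lung cancer cells in 1536-well plates were fixed and stained in a single step (final 0.05% Triton X-100, 1% formaldehyde, 1 ug/ml Hoechst) and their nuclei counted on 4× images. Treatment had been applied by pin tool the day after seeding as one drug alone or as a fixed anchor-drug dose with five library-drug doses (not always all listed) in √10 steps. Relative viability is the nuclei count of treated wells divided by that of vehicle wells, and values are medians of duplicate plates.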

Seliciclib + AZD7762 = compound: CC[C@H](CO)Nc1nc(NCc2ccccc2)c2ncn(C(C)C)c2n1 [Seliciclib] + NC(=O)Nc1cc(-c2cccc(F)c2)sc1C(=O)N[C@H]1CCCNC1 [AZD7762] (partner 0.2 µM)
Summary of the method: as §1

Seliciclib + Decitabine = compound: CC[C@H](CO)Nc1nc(NCc2ccccc2)c2ncn(C(C)C)c2n1 [Seliciclib] + Nc1ncn([C@H]2C[C@H](O)[C@@H](CO)O2)c(=O)n1 [Decitabine] (partner 2 µM)
Summary of the method: as §1

Seliciclib + Olaparib = compound: CC[C@H](CO)Nc1nc(NCc2ccccc2)c2ncn(C(C)C)c2n1 [Seliciclib] + O=C(c1cc(Cc2n[nH]c(=O)c3ccccc23)ccc1F)N1CCN(C(=O)C2CC2)CC1 [Olaparib] (partner 8 µM)
Summary of the method: as §1

Cell Line	relative viability (Seliciclib + Lapatinib; first compound 0.08 µM)	relative viability (Seliciclib + Lapatinib; first compound 0.253 µM)	relative viability (Seliciclib + Lapatinib; first compound 0.8 µM)	relative viability (Seliciclib + Lapatinib; first compound 2.53 µM)	relative viability (Seliciclib + Lapatinib; first compound 8 µM)	relative viability (Seliciclib + AZD7762; first compound 0.08 µM)	relative viability (Seliciclib + AZD7762; first compound 0.253 µM)	relative viability (Seliciclib + AZD7762; first compound 0.8 µM)	relative viability (Seliciclib + AZD7762; first compound 2.53 µM)	relative viability (Seliciclib + AZD7762; first compound 8 µM)	relative viability (Seliciclib + Decitabine; first compound 0.08 µM)	relative viability (Seliciclib + Decitabine; first compound 0.253 µM)	relative viability (Seliciclib + Decitabine; first compound 0.8 µM)	relative viability (Seliciclib + Decitabine; first compound 2.53 µM)	relative viability (Seliciclib + Decitabine; first compound 8 µM)	relative viability (Seliciclib + Olaparib; first compound 0.08 µM)	relative viability (Seliciclib + Olaparib; first compound 0.253 µM)	relative viability (Seliciclib + Olaparib; first compound 0.8 µM)	relative viability (Seliciclib + Olaparib; first compound 2.53 µM)	relative viability (Seliciclib + Olaparib; first compound 8 µM)
NCI-H2087	1.13	1.14	1.02	0.749	0.965	1.28	1.46	1.33	1.24	1.11	0.284	0.313	0.247	0.227	0.221	0.597	0.616	0.38	0.577	0.514
NCI-H2126	0.698	0.656	0.737	0.552	0.613	1.04	0.987	0.994	0.822	0.909	0.567	0.565	0.606	0.55	0.47	0.886	0.953	0.888	0.908	0.745
NCI-H2170	0.272	0.274	0.269	0.259	0.268	0.841		0.877	0.979	0.921	0.453		0.452	0.537	0.442	0.521		0.582	0.654	0.609
NCI-H2347	0.867	0.858	0.835	0.974	0.905	0.817	0.759	0.745	0.763	0.865	0.66	0.522	0.597	0.602	0.597	0.557	0.604	0.518	0.579	0.557
NCI-H2405	1.11	0.851	1.05	0.919	0.902	0.8	0.757	0.831	0.584	0.648	0.758	0.68	0.742	0.63	0.716	0.88	0.939	0.934	0.739	0.724
